Tests used:
[1] = biological target: T1, amilorid-sensitive Sodium Ion Channel (ENaC) (Homo sapiens, UniProt P37088); assay: Biological activity of condensed aerosol by Patch Clamp in A549 cells; type: cell-based; details: Mesh-Type nebulizer, aerosol condensed in cooling trap
T1 construct: Macroscopic Sodium Ion Currents were derived from human lung epithelian cells A549; endogenous in cells; host or cells: A549 human lung epithelial cells
T1 sequence (P37088 1-669): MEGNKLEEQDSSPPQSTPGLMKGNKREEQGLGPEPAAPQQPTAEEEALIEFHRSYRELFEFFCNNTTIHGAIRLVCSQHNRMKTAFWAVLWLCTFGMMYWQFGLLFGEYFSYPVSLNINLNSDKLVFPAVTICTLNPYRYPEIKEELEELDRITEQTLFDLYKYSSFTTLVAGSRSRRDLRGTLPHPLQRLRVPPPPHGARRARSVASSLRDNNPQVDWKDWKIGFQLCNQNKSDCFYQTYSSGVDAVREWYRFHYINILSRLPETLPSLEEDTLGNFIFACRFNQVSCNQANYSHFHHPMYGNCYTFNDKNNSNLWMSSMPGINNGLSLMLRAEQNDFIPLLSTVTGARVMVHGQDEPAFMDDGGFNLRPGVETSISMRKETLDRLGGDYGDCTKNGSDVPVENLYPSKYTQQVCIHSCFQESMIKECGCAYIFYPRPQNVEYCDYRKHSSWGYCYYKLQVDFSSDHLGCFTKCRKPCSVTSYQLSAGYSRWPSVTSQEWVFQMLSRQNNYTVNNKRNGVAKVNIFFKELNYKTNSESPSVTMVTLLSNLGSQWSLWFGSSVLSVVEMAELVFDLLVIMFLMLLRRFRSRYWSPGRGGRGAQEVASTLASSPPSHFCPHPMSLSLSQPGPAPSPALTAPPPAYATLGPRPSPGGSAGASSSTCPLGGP
T1 sequence (P51168 1-640 partner): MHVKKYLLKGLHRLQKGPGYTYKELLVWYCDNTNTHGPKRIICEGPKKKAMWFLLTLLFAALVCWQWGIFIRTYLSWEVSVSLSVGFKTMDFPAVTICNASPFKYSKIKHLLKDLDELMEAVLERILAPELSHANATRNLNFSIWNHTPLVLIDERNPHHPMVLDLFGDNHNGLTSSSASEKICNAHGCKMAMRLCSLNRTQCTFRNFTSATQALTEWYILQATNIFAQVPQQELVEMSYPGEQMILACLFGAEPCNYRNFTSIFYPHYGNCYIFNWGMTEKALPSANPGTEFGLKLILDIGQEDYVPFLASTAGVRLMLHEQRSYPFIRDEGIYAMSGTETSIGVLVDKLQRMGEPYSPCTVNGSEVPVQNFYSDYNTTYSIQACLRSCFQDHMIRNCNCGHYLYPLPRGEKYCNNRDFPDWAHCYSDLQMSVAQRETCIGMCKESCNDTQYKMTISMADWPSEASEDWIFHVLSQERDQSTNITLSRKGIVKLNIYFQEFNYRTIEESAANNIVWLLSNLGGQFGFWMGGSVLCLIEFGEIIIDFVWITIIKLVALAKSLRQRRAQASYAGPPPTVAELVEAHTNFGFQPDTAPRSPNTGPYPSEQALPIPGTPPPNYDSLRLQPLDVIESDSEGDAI
T1 sequence (P51170 1-649 partner): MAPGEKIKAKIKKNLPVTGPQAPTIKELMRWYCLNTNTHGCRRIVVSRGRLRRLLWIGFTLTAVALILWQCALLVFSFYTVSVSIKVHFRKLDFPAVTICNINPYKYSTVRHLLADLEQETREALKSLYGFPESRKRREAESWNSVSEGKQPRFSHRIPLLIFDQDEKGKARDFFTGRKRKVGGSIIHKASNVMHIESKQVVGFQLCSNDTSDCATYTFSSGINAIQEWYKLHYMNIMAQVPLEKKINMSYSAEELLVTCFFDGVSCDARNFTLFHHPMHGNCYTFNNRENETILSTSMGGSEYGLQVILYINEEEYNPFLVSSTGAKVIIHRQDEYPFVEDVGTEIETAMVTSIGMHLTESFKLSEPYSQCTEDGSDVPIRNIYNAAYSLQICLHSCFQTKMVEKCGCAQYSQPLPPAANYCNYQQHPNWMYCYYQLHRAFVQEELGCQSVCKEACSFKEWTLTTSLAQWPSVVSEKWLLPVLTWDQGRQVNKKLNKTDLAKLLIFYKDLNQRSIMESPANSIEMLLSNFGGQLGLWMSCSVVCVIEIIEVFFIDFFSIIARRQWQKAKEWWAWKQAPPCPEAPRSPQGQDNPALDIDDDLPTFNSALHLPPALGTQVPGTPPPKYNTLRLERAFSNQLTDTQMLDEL
Procedure: Since proteins and peptides occasionally may be rather unstable, it was investigated, whether the cyclic peptides of amino acid sequence SEQ ID NO:1 to SEQ ID NO:6 in dissolved preparation during conversion into an aerosol remain stable. For that the cyclic peptides were dissolved in water as described in example 4. After filling into the storage container of a nebulizer the aqueous solution of the cyclic peptides were converted into an aerosol. For that a “Mesh-Type” nebulizer was used. The biological activity of the collected aerosols was determined by means of the Patch Clamp method. Thereby macroscopic currents of A549 cells were deduced in the “whole cell” configuration of the “Patch-clamp” technique, as described under “Electrophysiological Investigations of the Amilorid-sensitive Sodium Ion Channel (ENaC)”.

[2] = Concentration in lung tissue and blood after aerosol inhalation, rat; type: in vivo; details: after inhalation of aerosol
Procedure: The proof of a cyclic peptide of amino acid sequence SEQ ID NO:1 to SEQ ID NO:6 may take place in lung tissue of rats. For that exemplarily an aerosol was produced with a nebulizer from an aqueous solution of the cyclic peptide of amino acid sequence SEQ ID NO:1. The aerosol was inhaled by the experimental animal (72 mg/kg body weight). After termination of aerosol inhalation, the lung tissue, as well as the blood of the experimental animal was examined. By means of reverse HPLC/MS the concentration of the cyclic peptide of amino acid sequence SEQ ID NO:1 was determined Exemplarily, the cyclic peptide of amino acid sequence SEQ ID NO:1 could be detected in the lung tissue in a concentration of 1.2 μm/g after inhalation of 72 mg/kg body weight in sum. In contrast to that the cyclic peptide of amino acid sequence SEQ ID NO:1 could not be detected in the blood up to a detection limit of 0.1 μm/ml.

C[C@@H]1NC(=O)CNC(=O)[C@H](CCC(=O)O)NC(=O)[C@@H]2CCCN2C(=O)[C@H]([C@@H](C)O)NC(=O)[C@H](CCC(=O)O)NC(=O)[C@H](CCCNC(=N)N)NC(=O)[C@H](CCC(N)=O)NC(=O)CNC(=O)[C@@H](N)CSSC[C@@H](C(=O)O)NC(=O)[C@H](Cc2ccc(O)cc2)NC(=O)[C@H](Cc2c[nH]c3ccccc23)NC(=O)[C@@H]2CCCN2C(=O)[C@H](CCCCN)NC(=O)[C@H](C)NC(=O)[C@H](CCC(=O)O)NC1=O [SEQ ID NO: 1]
biological stability during transformation into an aerosol [1]: keeps its biological, as well as its chemical stability | concentration in lung tissue ([2]; 72 mg/kg body weight in sum): 1.2 μm/g | concentration in blood ([2]; 72 mg/kg, detection limit): < 0.1 μm/ml

Source: patent publication US10711041B2, “Lyophilisate containing a cyclic peptide of formula X1-[sequence]-X2” (priority 2013, dated 2020)
